Measurements taken from patent US20260062412A1, “NITROGEN-CONTAINING HETEROCYCLIC COMPOUND HAVING MYT1 INHIBITORY ACTIVITY” (CHUGAI SEIYAKU KABUSHIKI KAISHA, priority 2023, published 2026).

target: MYT1 protein (Homo sapiens (Human), UniProt Q99640); test: Test for binding to ATP binding site of MYT1 (Kinase Tracer 178 / Eu-Anti-GST antibody TR-FRET); conditions: ATP binding site of MYT1, 30 minutes at room temperature
Sequence (Q99640 whole entry): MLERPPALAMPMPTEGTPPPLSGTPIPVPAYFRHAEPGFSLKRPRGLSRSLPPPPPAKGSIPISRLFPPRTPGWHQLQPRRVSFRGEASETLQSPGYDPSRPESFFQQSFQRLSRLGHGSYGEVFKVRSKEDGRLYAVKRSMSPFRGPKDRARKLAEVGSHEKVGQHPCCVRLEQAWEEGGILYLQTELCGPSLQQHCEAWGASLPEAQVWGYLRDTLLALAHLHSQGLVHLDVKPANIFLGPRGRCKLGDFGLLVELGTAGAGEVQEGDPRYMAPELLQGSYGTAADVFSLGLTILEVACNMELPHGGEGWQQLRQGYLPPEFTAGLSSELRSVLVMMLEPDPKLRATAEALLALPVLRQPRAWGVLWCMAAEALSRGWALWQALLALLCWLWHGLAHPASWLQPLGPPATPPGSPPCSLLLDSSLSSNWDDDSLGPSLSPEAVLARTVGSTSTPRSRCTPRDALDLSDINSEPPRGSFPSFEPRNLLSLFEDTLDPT

| IC50 | Structure (SMILES) |
| --- | --- |
| 5.7 nM | Nc1c(-c2ccc(F)c3[nH]ncc23)c2cc(OCC3(F)CC3)c3ncccc3c2[nH]c1=O [Compound C38, 3-Amino-6-[(1-fluorocyclopropyl)methoxy]-4-(7-fluoro-1H-indazol-4-yl)-1H-1,7-phenanthrolin-2-one] |
| 6.5 nM | Nc1c(-c2ccc(F)c3[nH]ncc23)c2cc(OCC3CC(F)(F)C3)c3ncccc3c2[nH]c1=O [Compound C39, 3-Amino-6-[(3,3-difluorocyclobutyl)methoxy]-4-(7-fluoro-1H-indazol-4-yl)-1H-1,7-phenanthrolin-2-one] |
| 4 nM | Nc1c(-c2ccc(F)c3[nH]ncc23)c2cc(OCC3(F)COC3)c3ncccc3c2[nH]c1=O [Compound C40, 3-Amino-4-(7-fluoro-1H-indazol-4-yl)-6-[(3-fluorooxetan-3-yl)methoxy]-1H-1,7-phenanthrolin-2-one] |
| 6.1 nM | Nc1c(-c2ccc(F)c3[nH]ncc23)c2cc(OC3CC4(COC4)C3)c3ncccc3c2[nH]c1=O [Compound C41, 3-Amino-4-(7-fluoro-1H-indazol-4-yl)-6-(2-oxaspiro[3,3]heptan-6-yloxy)-1H-1,7-one] |
| 2.7 nM | Nc1c(-c2ccc(F)c3[nH]ncc23)c2cc(O[C@H]3C[C@H](F)C3)c3ncccc3c2[nH]c1=O [Compound C42, 3-Amino-6-((1r,3r)-3-fluorocyclobutyl)oxy-4-(7-fluoro-1H-indazol-4-yl)-1H-1,7-phenanthrolin-2-one] |
| 19 nM | Nc1c(-c2ccc(F)c3[nH]ncc23)c2cc(OCCOC(F)(F)F)c3ncccc3c2[nH]c1=O [Compound C43, 3-Amino-4-(7-fluoro-1H-indazol-4-yl)-6-[2-(trifluoromethoxy)ethoxy]-1H-1,7-phenanthrolin-2-one] |
| 5.1 nM | Nc1c(-c2ccc(F)c3[nH]ncc23)c2cc(OCC3(C(F)(F)F)CC3)c3ncccc3c2[nH]c1=O [Compound C44, 3-Amino-4-(7-fluoro-1H-indazol-4-yl)-6-[[1-(trifluoromethyl)cyclopropyl]methoxy]-1H-1,7-one] |
| 3.6 nM | CO[C@@H](C)COc1cc2c(-c3ccc(F)c4[nH]ncc34)c(N)c(=O)[nH]c2c2cccnc12 [Compound C45, 3-Amino-4-(7-fluoro-1H-indazol-4-yl)-6-[(2S)-2-methoxypropoxy]-1H-1,7-phenanthrolin-2-one] |
| 2.9 nM | Nc1c(-c2ccc(F)c3[nH]ncc23)c2cc(O[C@@H]3CCCOC3)c3ncccc3c2[nH]c1=O [Compound C46, 3-Amino-4-(7-fluoro-1H-indazol-4-yl)-6-[(3R)-oxan-3-yl]oxy-1H-1,7-phenanthrolin-2-one] |
| 4 nM | Nc1c(-c2ccc(F)c3[nH]ncc23)c2cc(OC3CCS(=O)(=O)CC3)c3ncccc3c2[nH]c1=O [Compound C47, 3-Amino-6-(1,1-dioxothian-4-yl)oxy-4-(7-fluoro-1H-indazol-4-yl)-1H-1,7-phenanthrolin-2-one] |
| 10 nM | Nc1c(-c2ccc(F)c3[nH]ncc23)c2cc(OC3CCC(F)(F)CC3)c3ncccc3c2[nH]c1=O [Compound C48, 3-Amino-6-(4,4-difluorocyclohexyl)oxy-4-(7-fluoro-1H-indazol-4-yl)-1H-1,7-phenanthrolin-2-one] |
| 1.7 nM | Nc1c(-c2ccc(F)c3[nH]ncc23)c2cc(OCC34CC(C3)C4)c3ncccc3c2[nH]c1=O [Compound C49, 3-Amino-6-(1-bicyclo[1.1.1]pentanylmethoxy)-4-(7-fluoro-1H-indazol-4-yl)-1H-1,7-phenanthrolin-2-one] |
| 4 nM | CO[C@H](C)COc1cc2c(-c3ccc(F)c4[nH]ncc34)c(N)c(=O)[nH]c2c2cccnc12 [Compound C50, 3-Amino-4-(7-fluoro-1H-indazol-4-yl)-6-[(2R)-2-methoxypropoxy]-1H-1,7-phenanthrolin-2-one] |
| 1.7 nM | Nc1c(-c2ccc(F)c3[nH]ncc23)c2cc(O[C@H]3CCCOC3)c3ncccc3c2[nH]c1=O [Compound C51, 3-Amino-4-(7-fluoro-1H-indazol-4-yl)-6-[(3S)-oxan-3-yl]oxy-1H-1,7-phenanthrolin-2-one] |
